This passage reports % of inhibition, % of control and % binding results from ChEMBL document CHEMBL5465560, “Selectivity Literature for EUbOPEN Chemogenomic Library” (2024).

Experiment [1] deals with MAP kinase-activated protein kinase 3 (Homo sapiens) (UniProt Q16644). The experiment in a line: Selectivity interaction (Kinase screening (Nanosyn)) EUB0000604a MAPKAPK3.
For experiment [2], the target named is Glycogen synthase kinase-3 beta (Homo sapiens, UniProt P49841). Put plainly: Selectivity interaction (KinomeScan (DiscoverX)) EUB0000045b GSK3B.
Experiment [3] has as its target Serine/threonine-protein kinase 32A (Homo sapiens) (UniProt Q8WU08). The experiment in a line: Selectivity interaction (KinomeScan (DiscoverX)) EUB0000045b STK32A.
In experiment [4] the target is Tyrosine-protein kinase HCK (Homo sapiens) (UniProt P08631). The experiment in a line: Selectivity interaction (KinomeScan (DiscoverX)) EUB0000607a HCK. The following applies: at 10 µM.
The target in experiment [5] is T1, Ephrin type-B receptor 6 (Homo sapiens) (UniProt O15197).
T1 sequence (whole entry): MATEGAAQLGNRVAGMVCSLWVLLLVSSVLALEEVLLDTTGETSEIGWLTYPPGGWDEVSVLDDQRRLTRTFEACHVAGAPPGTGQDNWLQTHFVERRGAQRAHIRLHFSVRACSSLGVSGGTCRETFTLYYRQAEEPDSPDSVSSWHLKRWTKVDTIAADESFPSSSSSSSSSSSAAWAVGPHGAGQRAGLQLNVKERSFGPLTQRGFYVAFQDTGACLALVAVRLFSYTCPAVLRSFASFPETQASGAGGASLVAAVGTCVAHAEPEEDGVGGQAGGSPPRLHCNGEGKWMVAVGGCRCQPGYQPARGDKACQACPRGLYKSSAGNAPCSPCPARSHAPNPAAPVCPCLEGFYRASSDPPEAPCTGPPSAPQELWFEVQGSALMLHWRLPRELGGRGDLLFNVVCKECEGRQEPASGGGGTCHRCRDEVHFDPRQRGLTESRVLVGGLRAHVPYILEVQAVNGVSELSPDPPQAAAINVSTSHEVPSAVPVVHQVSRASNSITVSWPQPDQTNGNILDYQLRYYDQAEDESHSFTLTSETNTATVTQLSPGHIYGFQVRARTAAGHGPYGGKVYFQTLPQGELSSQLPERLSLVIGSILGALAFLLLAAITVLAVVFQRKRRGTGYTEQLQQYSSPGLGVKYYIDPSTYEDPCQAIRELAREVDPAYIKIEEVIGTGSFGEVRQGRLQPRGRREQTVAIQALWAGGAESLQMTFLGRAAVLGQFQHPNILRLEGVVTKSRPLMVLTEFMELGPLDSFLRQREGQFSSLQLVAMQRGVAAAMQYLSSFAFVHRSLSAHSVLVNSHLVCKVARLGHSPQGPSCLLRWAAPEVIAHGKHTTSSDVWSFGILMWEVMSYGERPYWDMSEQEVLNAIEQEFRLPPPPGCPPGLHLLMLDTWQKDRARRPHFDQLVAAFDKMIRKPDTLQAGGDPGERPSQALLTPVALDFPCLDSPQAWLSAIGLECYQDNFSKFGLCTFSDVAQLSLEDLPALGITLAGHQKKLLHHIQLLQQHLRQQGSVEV
Put plainly: Selectivity interaction (KinomeScan (DiscoverX)) EUB0000229b EPHB6. The note with it: at 10 µM.

For experiment [6], the target named is T2, Phosphatidylinositol 5-phosphate 4-kinase type-2 gamma (Homo sapiens) (UniProt Q8TBX8).
T2 sequence (whole entry): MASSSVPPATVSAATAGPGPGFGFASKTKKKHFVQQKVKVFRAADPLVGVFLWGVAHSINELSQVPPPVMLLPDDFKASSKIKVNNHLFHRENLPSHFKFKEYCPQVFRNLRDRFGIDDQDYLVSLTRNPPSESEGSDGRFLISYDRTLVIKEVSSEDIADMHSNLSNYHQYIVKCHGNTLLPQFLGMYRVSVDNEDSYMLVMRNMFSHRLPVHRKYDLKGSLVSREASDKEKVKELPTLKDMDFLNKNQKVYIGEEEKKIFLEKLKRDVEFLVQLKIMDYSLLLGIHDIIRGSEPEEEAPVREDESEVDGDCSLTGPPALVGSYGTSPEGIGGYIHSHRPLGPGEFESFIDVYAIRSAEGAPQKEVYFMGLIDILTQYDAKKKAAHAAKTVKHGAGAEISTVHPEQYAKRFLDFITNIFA
The experiment in a line: Selectivity interaction (KinomeScan (DiscoverX)) EUB0000229b PIP4K2C. The following applies: at 10 µM.

The target in experiment [7] is T3, Serine/threonine-protein kinase D1 (Homo sapiens) (UniProt Q15139).
T3 sequence (whole entry): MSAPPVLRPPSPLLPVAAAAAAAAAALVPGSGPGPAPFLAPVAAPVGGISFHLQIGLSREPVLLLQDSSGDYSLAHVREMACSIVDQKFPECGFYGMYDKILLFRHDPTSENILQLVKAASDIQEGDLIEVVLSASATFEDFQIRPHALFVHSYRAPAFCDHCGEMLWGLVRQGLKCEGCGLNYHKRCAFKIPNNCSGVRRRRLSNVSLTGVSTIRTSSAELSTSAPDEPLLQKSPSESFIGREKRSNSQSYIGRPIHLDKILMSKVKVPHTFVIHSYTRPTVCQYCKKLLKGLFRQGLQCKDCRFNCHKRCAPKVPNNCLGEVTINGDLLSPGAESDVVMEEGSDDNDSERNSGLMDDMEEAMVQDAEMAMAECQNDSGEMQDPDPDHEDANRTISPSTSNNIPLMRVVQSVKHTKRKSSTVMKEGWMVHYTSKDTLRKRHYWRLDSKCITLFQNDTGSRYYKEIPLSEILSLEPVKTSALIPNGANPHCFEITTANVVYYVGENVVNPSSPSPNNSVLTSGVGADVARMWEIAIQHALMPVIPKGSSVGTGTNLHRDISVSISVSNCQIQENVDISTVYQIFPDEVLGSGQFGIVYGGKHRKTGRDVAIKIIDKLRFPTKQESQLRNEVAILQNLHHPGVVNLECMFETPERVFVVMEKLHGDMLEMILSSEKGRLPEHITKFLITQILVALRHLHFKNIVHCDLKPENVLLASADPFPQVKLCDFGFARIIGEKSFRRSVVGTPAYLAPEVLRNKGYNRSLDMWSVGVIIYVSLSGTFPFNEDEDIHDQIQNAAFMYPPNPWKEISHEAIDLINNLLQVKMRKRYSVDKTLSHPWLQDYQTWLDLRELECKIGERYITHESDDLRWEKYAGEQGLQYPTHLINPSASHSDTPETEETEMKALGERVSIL
The experiment in a line: Selectivity interaction (KinomeScan (DiscoverX)) EUB0000618a PRKD1. The following applies: at 10 µM.

Serine/threonine-protein kinase 32A (Homo sapiens), sequence (Q8WU08 whole entry): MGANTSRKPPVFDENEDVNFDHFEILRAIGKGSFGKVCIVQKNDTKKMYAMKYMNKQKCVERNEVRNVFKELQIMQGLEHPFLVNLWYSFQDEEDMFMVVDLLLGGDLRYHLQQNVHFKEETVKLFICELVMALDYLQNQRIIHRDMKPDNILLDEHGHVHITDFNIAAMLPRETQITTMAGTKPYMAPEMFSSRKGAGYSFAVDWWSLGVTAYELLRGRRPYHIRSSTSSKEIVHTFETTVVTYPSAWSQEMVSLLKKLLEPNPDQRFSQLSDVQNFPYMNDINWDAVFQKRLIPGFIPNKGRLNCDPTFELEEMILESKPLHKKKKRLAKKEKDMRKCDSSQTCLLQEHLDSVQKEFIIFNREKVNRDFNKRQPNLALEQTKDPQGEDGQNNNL
Glycogen synthase kinase-3 beta, sequence (P49841 whole entry, looked up): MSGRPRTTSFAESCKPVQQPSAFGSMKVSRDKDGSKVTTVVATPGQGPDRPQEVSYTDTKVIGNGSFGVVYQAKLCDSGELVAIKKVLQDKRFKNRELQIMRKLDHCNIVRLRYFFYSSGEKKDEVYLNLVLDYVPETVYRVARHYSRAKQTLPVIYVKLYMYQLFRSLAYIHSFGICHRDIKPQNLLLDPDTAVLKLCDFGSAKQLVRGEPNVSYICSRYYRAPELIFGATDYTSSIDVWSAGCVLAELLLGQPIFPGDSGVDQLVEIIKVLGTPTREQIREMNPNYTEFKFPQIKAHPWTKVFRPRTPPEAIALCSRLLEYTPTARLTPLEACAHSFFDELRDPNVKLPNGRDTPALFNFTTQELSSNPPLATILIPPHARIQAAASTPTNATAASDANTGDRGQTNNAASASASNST
MAP kinase-activated protein kinase 3 (Homo sapiens), sequence (Q16644 whole entry, looked up): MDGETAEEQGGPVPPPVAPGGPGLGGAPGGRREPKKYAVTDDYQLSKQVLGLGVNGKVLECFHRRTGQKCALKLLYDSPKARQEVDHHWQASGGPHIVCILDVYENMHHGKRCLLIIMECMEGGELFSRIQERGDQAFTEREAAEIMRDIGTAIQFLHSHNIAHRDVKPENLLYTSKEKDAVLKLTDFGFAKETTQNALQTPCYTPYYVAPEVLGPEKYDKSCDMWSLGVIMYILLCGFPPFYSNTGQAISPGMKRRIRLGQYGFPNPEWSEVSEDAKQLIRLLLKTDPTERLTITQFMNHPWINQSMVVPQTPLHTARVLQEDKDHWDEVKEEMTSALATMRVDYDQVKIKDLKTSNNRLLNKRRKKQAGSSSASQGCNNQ
Tyrosine-protein kinase HCK (Homo sapiens), sequence (P08631 2-526 limits assumed): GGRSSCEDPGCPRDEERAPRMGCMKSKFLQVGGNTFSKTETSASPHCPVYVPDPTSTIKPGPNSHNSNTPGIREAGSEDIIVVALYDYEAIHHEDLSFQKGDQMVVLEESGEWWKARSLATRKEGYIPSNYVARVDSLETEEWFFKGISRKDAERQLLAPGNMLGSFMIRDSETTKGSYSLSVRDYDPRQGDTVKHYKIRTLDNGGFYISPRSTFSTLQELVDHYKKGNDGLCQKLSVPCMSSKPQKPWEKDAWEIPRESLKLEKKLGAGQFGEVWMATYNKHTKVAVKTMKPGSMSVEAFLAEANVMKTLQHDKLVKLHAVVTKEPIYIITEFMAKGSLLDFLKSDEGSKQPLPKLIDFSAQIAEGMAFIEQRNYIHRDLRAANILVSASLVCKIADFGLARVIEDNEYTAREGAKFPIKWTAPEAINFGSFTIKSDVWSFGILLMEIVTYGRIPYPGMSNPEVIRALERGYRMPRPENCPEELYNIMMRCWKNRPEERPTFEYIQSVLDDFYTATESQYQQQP

For the molecule `Cc1cnc(Nc2ccc(F)cc2Cl)nc1-c1c[nH]c(C(=O)N[C@H](CO)c2cccc(Cl)c2)c1`, the % of inhibition in experiment [1] turned out to be 5%. As to `C=CC(=O)Nc1cc(-n2c(=O)ccc3cnc4ccc(-c5ccc(NS(C)(=O)=O)cc5)cc4c32)ccc1C`, the % of control in experiment [2] (at 1 µM) amounted to 100%; in experiment [2] (at 10 µM), 77%; in experiment [3] (at 1 µM) it was 100%; in experiment [3] (at 10 µM) it was 100%.

In turn, `CNC(=O)Nc1ccc(-c2nc(N3CC4CCC(C3)O4)c3cnn(C4CCC5(CC4)OCCO5)c3n2)cc1` gave a % of control in experiment [4] of 100%. For `COc1cc(N(C)c2ccnc3ccc(C(F)(F)F)cc23)cc(OC)c1OC`, the % binding in experiment [5] amounted to 81%; in experiment [6], 38%. `O[C@H]1CC[C@H](Nc2ncc3nc(Nc4c(F)cc(F)cc4F)n([C@H]4CCOC4)c3n2)CC1` returned a % of control in experiment [7] of 46%.
